Nine compounds from PubChem BioAssay (NCI) can be followed below.

Several values for one entry are separate records, joined by “and”; a condition that tells them apart may be missing. Equal values may be shown once.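 A five-concentration, 48-hour dose response in 96-well plates underlies each endpoint, interpolated linearly between surrounding concentrations. The concentration for 50% growth inhibition is given as GI50. TGI: total growth inhibition.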 Where only a bound is given, the exact number is not on record here.

The GI50 is the concentration that inhibits growth by half. By TGI is commonly meant the concentration giving total growth inhibition.

Common to all, as to assay: DTP human tumour cell line panel, 48 h
The test system of test [1] is UACC-257 melanoma.
Test [2] relates to EKVX NSCLC.
In test [3] the test system is MCF7 breast.
Test [4] concerns UO-31 renal.
For test [5], the system named is NCI/ADR-RES ovarian.
For test [6], the system named is NCI-H460 lung.
The test system of test [7] is OVCAR-8 ovarian.
Test [8] deals with SK-MEL-2 melanoma.

With `CCN(CC)CCOc1ccc(Nc2ncc3cc(-c4ccc(O)cc4)c(=O)n(C)c3n2)cc1`, the GI50 was 7.57 µM in test [1]; 15.1 µM in test [2]; 1.07 µM in test [3]; 0.0396 µM in test [4]; 12.7 µM in test [5]; 3.77 µM in test [6]. The GI50 in test [7] is 3.72 µM; in test [8], 18.9 µM. Moreover, the total growth inhibition concentration (TGI) in test [1] was determined as 31.6 µM; in test [2], 37.5 µM; in test [3], 2.78 µM; in test [4], 1.6 µM; in test [5], 41.5 µM; in test [6] it was 8.85 µM. The TGI was found to be 15.2 µM in test [7] and 39.5 µM in test [8].
Consider `C/C=C(\C)C(=O)N[C@H]1[C@@H](OC(C)=O)C[C@]2(C)C3CC[C@@]4(C)C(CC[C@@H]4C(C)N(C)C)C3CCC2[C@H]1O` (stereo not given in full), for which the GI50 in test [1] is 1.98 µM; in test [2] it was 5.63 µM; in test [3], 3.71 µM; in test [4] it was 3.16 µM; in test [5] it was 9.79 µM; in test [6], 2.18 µM. Further, the GI50 in test [7] was 11.2 µM; in test [8], 2.3 µM. For the same compound, the TGI in test [1] came to 5.16 µM; in test [2] it was 31.4 µM; in test [3], 18.1 µM; in test [4], 15.2 µM; in test [5], 30.3 µM; in test [6] it was 5.8 µM. Further, the TGI worked out at 43.4 µM in test [7] and 6.38 µM in test [8].
On to `CC(=O)C1CC2(c3ccc(C)cc3)C(c3ccc(C)cc3)=C(c3ccc(C)cc3)C1(c1ccc(C)cc1)S2=O` (stereo not given), for which the GI50 in test [1], in test [2], in test [3], in test [4], in test [5] and in test [6] was more than 100 µM in each case. Moreover, the GI50 in test [7] was 88.2 µM; in test [8], more than 100 µM. In addition, the concentration for total growth inhibition (TGI) in test [1], in test [2], in test [3], in test [4], in test [5] and in test [6] was more than 100 µM each time. In addition, the concentration for total growth inhibition (TGI) in test [7] and in test [8] was more than 100 µM in each case.
Take `C=C1C(=O)O[C@@H]2C1C[C@@H](O)/C(C)=C/C/C=C(\C)CCC[C@H](C)[C@H]2OC(C)=O` (stereo not given in full): the GI50 is 36.4 µM in test [1]; 23.8 µM in test [2]; 20 µM in test [3]; 15.6 µM in test [4]; 32.3 µM in test [5]; more than 100 µM in test [6]. Moreover, the values for the GI50 in test [7] and in test [8] were 35.5 µM and 18.2 µM, respectively. Moreover, the concentration for total growth inhibition (TGI) in test [1] is more than 100 µM; in test [2] it was 59.1 µM; in test [3] it was 46.2 µM; in test [4], 39.4 µM; in test [5] it was more than 100 µM; in test [6], more than 100 µM. Besides, the values for the TGI in test [7] and in test [8] were more than 100 µM and 67.9 µM, respectively.
In the case of `N#CC1=C(N)N=C(N2CCCCC2)C(C#N)C12Nc1ccccc1S2` (stereo not given), the GI50 in test [1] is 20.9 µM; in test [2], 28.7 µM; in test [3], 44.9 µM; in test [4], 40.8 µM; in test [5], 20 µM; in test [6] it was 27 µM. Also, the GI50 in test [7] is 38.3 µM; in test [8], 36.4 µM. The concentration for total growth inhibition (TGI) in test [1] is 51 µM; in test [2], 91.1 µM; in test [3], more than 100 µM; in test [4] it was more than 100 µM; in test [5], 68.6 µM; in test [6], more than 100 µM. For the same compound, the total growth inhibition concentration (TGI) was more than 100 µM in test [7] and 79 µM in test [8].
As to `COC(=O)NC/C=C\c1nc(CC/C=C\C(=O)OC2CC3CC(=O)O[C@H](/C=C/CC(C)C)C[C@H]4CCC(C)C(C[C@H](OC)CC(C2)O3)O4)co1` (stereo not given in full), the GI50 was more than 100 µM in test [1]; less than 0.01 µM in test [2]; less than 0.01 µM in test [3]; 25.4 µM in test [4]; 59 µM in test [5]; less than 0.01 µM in test [6]. The GI50 in test [7] is more than 100 µM; in test [8], 20.2 µM. Also, the concentration for total growth inhibition (TGI) in test [1] is more than 100 µM; in test [2], 4.8 µM; in test [3], 10.5 µM; in test [4], more than 100 µM; in test [5] it was more than 100 µM; in test [6] it was 63.5 µM. Besides, the TGI in test [7] and in test [8] was more than 100 µM in each case.
With `C=C(Cl)COC(=O)Nc1cccc(Cl)c1`, the concentration for total growth inhibition (TGI) is more than 100 µM in test [1]; 59.1 µM in test [2]; more than 100 µM in test [3]; 44.9 µM in test [4]; 99.7 µM in test [5]; more than 100 µM in test [6]. The concentration for total growth inhibition (TGI) in test [7] was more than 100 µM; in test [8], 58.5 µM.
`C=C1C[C@@H]2C/C=C/C(=O)C/C(C)=C\C=C\C(=O)O[C@H](C=O)C/C(C)=C/[C@H](C1)O2`: the GI50 was 14.1 µM in test [1]; 3.68 µM in test [2]; 0.277 µM in test [3]; 3.33 µM in test [4]; 2.58 µM in test [5]; 3.07 µM in test [6]. In addition, the figures for the GI50 in test [7] and in test [8] were 1.49 µM and 6.1 µM, respectively. For the same compound, the TGI was 34.7 µM in test [1]; 21.2 µM in test [2]; 13.6 µM in test [3]; 56.4 µM in test [4]; more than 100 µM in test [5]; 16.7 µM in test [6]. The TGI in test [7] was more than 100 µM; in test [8] it was 34.9 µM.
With `O=C1/C(=C/c2ccc(O)c([N+](=O)[O-])c2)CCC/C1=C\c1ccc(O)c([N+](=O)[O-])c1`, the GI50 in test [1] is 15.5 µM; in test [2], 15 µM; in test [3] it was 15.8 µM; in test [4], 20.7 µM; in test [5] it was 16.3 µM; in test [7], 16 µM. In test [8], the GI50 was 13 µM. Besides, the TGI in test [1] was 44.3 µM and 37.7 µM; in test [2], 50 µM and 28.8 µM; in test [3], 50 µM and 63 µM; in test [4] it was 25.5 µM and 39.5 µM; in test [5], 50 µM and 41.7 µM; in test [6], 31.6 µM. The total growth inhibition concentration (TGI) in test [7] was 50 µM and 34.7 µM; in test [8], 32.2 µM and 27.2 µM.
